Here are results for seven molecules from patent US20200060994A1, “METHODS OF TREATING PSYCHIATRIC STRESS DISORDERS” (Yeda Research and Development Co. Ltd., priority 2017, published 2020).

The test system of data set [1] is importin α5 KO mice. The data set is described as follows: Open field (OF) test, importin α5 KO mice. The class given is in vivo, mouse. Conditions: FG-7142 5 mg/kg intraperitoneally, OF after 30 min. As to the method:
(§1) All drugs were administered by intraperitoneal injection (I.P.). […] A. CNS Drug Rev.

The test system of data set [2] is wild type C57BL6 mice. The data set is described as follows: Elevated plus maze (EPM) test, wild type mice. Type of data set: in vivo, mouse. As to the method: as §1
(§2) The EPM contains two open arms and two enclosed ones connected by a central square. Exploration on the open arms is reduced in high anxiety states while it is increased in low anxiety states [Walf, A. A. & Frye, C. A. Nat. Protoc. 2, 322-8 (2007)]. Mice were placed on the central platform facing one of the “open” arms to initiate a 5-minutes test session and the time spent in each arm was measured. The test was performed under 7 lx and 65 dB white noise. The number of entries into, the time spent/distance on the open arms and the percentage of the open arm entries compared with total number of arm entries were recorded using the VideoMot2 software (TSE System, Germany) or the Ethovision XT11 software (Noldus Information Technology, The Netherlands).

In data set [3] the test system is importin α5 KO mice. The data set is described as follows: Elevated plus maze (EPM) test, importin α5 KO mice. Type of data set: in vivo, mouse. As to conditions: PF-543 10 mg/kg i.p. As to the method:
as §1, §2

For data set [4], the system named is wild type C57BL6 mice. As to the kind of experiment: Open field (OF) test, wild type mice. Conditions: for anxiolytic properties / behavior in the OF test: 1 hour following i.p. injection vs vehicle, Sitosterol 100 mg/kg, Alvespimycin 75 mg/kg, Fluspirilene 10 mg/kg; for number of rearings in the OF center: larger cohort n=10 mice per group, P<0.01.
Setting [5] is: S1P receptor agonist 0.1 mg/kg i.p., C57BL6, vs vehicle.
[6] abbreviates: S1P receptor agonist 0.1 mg/kg i.p., C57Bl6.
Setting [7] is: β-sitosterol 100 mg/kg, 1 hour following injection, vs vehicle.
The mark [8] stands for this setting: β-sitosterol 100 mg/kg IP, 1 and 6 hours following injection, vs vehicle.

“Also recorded” adds a separate entry of the source. Structures can show the parent of a compound that is named as a salt.

As for `CNC(=O)c1cc2c(cn1)[nH]c1ccccc12` [FG-7142], in the data set on importin α5 KO mice [1], the “distance travelled in the center of the OF” value is “significantly decreases” and the “number of rearing events in the center” value is “significantly decreases”. For the same molecule, the “anxiolytic phenotype of importin α5 KO mice in the OF test” value in the data set with importin α5 KO mice [1] (5 mg/kg) is on record as “reversed anxiolysis”.

For the molecule `Cc1cc(CS(=O)(=O)c2ccccc2)cc(OCc2ccc(CN3CCC[C@@H]3CO)cc2)c1` [PF-543], the “anxiety-related behavior of WT mice in the EPM” value in the data set on wild type C57BL6 mice [2] (PF-543 10 mg/kg i.p., WT mice) is reported as “did not influence”. In the data set on importin α5 KO mice [3] (importin α5 KO animals), the “distance travelled in the open arms” value is “significantly decreased” and the “time spent in the open arms” value is reported as “significantly decreased”. In the data set with importin α5 KO mice [3] (10 mg/kg), the “anxiolytic phenotype of importin α5 KO mice in the EPM” value was “attenuated; also recorded: reverse the anxiolytic response of importin α5 KOs towards WT values”.

As to `CO[C@H]1/C=C\C=C(/C)C(=O)NC2=CC(=O)C(NCCN(C)C)=C(C[C@@H](C)C[C@H](OC)[C@H](O)[C@@H](C)/C=C(\C)[C@@H]1OC(N)=O)C2=O` [alvespimycin], the “anxiolytic properties / behavior in the OF test” value (“anxiolytic properties / behavior” for short) in the data set with wild type C57BL6 mice [4] was “marked yet variable differences; also recorded: anxiolytic effect”. Also, in the data set on wild type C57BL6 mice [4] (alvespimycin 75 mg/kg i.p., 1 hour, single dosage regime, FIG. 12A), the “rearing activity in the center” value is on record as “reaching statistical significance”. The “motor performances in the OF test” value in the data set on wild type C57BL6 mice [4] (alvespimycin, independent cohort n=10, FIG. 12B) is recorded as “without adverse effects”. Also, the “number of rearings in the OF center” value with wild type C57BL6 mice [4] (alvespimycin, FIG. 12B) is reported as 6.2±2.07; with wild type C57BL6 mice [4] (alvespimycin, FIG. 12B, listed as Alvespimycin) it was “increase”. The “time spent in the center area” value with wild type C57BL6 mice [4] (alvespimycin, n=10 per group, FIG. 12B, P=0.052) is given as “increased”. The “latency to access the center area” value in the data set with wild type C57BL6 mice [4] (alvespimycin, n=10 per group, FIG. 12B, P=0.08) is listed as “increased”. Moreover, the “number of visit in the center area” value in the data set with wild type C57BL6 mice [4] (alvespimycin, n=10 per group, FIG. 12B, P=0.09) is given as “increased”.

`CNCCC(Oc1ccc(C(F)(F)F)cc1)c1ccccc1` (stereo not drawn) [fluoxetine, Fluoxetine hydrochloride]: in the data set with wild type C57BL6 mice [4] (fluoxetine 2, 5, 10 or 20 mg/kg vs vehicle, 10 minutes OF test), the “anxiolytic effect in the OF test, dose-response” value is “dose dependent anxiolytic effect”. The “anxiolytic effects in the OF test” value in the data set with wild type C57BL6 mice [4] (fluoxetine doses of 5 mg/kg and below) is on record as “no apparent effect”; with wild type C57BL6 mice [4] (fluoxetine doses of 10 mg/kg and above) it was “significant anxiolytic effects”.

For `O=C1NCN(c2ccccc2)C12CCN(CCCC(c1ccc(F)cc1)c1ccc(F)cc1)CC2` [fluspirilene], the “anxiolytic properties / behavior” value with wild type C57BL6 mice [4] is listed as “anxiolytic effect”.

`CCc1cc(/C(C)=N/OCc2ccc(C3CCCCC3)c(C(F)(F)F)c2)ccc1CN1CC(C(=O)O)C1` [siponimod]: the “time spent in the open arms of the EPM” value in the data set with wild type C57BL6 mice [2] (setting [5]) is reported as “significant increase”. Further, in the data set on wild type C57BL6 mice [2] (setting [6]), the “anxiety levels in the EPM assay” value is “markedly reduced”. Also, in the data set with wild type C57BL6 mice [2] (siponimod 0.1 mg/kg i.p. every 3 days during 4 weeks, vs vehicle), the “distance in the open arms of the EPM” value is “significant increase”. Further, in the data set with wild type C57BL6 mice [4] (setting [5]), the “distance travelled in the center of the OF” value was “significant increase” and the “time spent in the center of the OF” value is listed as “significant increase”. In addition, the “anxiety levels in the OF assay” value in the data set on wild type C57BL6 mice [4] (setting [6]) is given as “markedly reduced”. Moreover, the “center/border ratio (for the exploration time) in the OF” value in the data set with wild type C57BL6 mice [4] (siponimod 0.1 mg/kg i.p. every 3 days during 4 weeks, vs saline) is reported as “higher”.

Regarding `CC[C@H](CC[C@@H](C)[C@H]1CC[C@H]2[C@@H]3CC=C4C[C@@H](O)CC[C@]4(C)[C@H]3CC[C@]12C)C(C)C` [β-sitosterol], in the data set on wild type C57BL6 mice [2] (setting [7]), the “distance in the open arms of the EPM” value is “significant increase” and the “time spent in the open arms of the EPM” value was “significant increase”. For the same molecule, the “anxiolytic properties / behavior” value in the data set with wild type C57BL6 mice [4] is on record as “anxiolytic effect”. Also, in the data set on wild type C57BL6 mice [4] (setting [8]), the “distance travelled in the OF center” value is listed as “increasing” and the “number of visits in the OF center” value is “increasing”. The “time course of anxiolytic effects in the OF test” value in the data set on wild type C57BL6 mice [4] (β-sitosterol by injection) was “apparent 1 hour post-injection and persisted until 6 hours following injection”. The “anxiolytic effect in the OF test, dose response” value in the data set on wild type C57BL6 mice [4] (β-sitosterol intraperitoneally at the indicated doses, 1 hour following injection) is reported as “clear dose-dependent anxiolytic effects; also recorded: reaching significance for the highest dose tested”.
